Results on five molecules are retold here after patent publication US20250236614A1, “BICYCLIC TETRAHYDROAZEPINE DERIVATIVES” (Hoffmann-La Roche Inc., priority 2022, published 2025).

T2 sequence (P23743 whole entry): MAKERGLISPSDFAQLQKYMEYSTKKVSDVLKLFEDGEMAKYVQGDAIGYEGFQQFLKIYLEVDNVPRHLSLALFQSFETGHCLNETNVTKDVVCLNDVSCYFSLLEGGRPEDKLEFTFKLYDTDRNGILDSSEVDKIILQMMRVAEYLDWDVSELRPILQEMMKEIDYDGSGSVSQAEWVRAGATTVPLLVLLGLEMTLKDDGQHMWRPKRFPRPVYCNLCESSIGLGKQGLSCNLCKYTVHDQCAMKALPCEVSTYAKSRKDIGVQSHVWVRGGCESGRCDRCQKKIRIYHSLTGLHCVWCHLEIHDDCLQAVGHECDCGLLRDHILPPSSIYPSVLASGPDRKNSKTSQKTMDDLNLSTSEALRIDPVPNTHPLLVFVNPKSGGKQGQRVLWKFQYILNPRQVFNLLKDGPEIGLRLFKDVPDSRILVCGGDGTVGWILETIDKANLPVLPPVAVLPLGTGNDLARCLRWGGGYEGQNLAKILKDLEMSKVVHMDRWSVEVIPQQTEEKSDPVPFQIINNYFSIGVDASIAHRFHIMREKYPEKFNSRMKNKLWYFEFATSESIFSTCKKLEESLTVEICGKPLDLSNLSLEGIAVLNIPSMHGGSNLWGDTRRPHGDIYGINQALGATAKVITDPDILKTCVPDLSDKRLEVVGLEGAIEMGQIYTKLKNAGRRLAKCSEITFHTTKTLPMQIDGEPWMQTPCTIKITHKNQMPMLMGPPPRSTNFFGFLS
T1 sequence (Q13574 whole entry): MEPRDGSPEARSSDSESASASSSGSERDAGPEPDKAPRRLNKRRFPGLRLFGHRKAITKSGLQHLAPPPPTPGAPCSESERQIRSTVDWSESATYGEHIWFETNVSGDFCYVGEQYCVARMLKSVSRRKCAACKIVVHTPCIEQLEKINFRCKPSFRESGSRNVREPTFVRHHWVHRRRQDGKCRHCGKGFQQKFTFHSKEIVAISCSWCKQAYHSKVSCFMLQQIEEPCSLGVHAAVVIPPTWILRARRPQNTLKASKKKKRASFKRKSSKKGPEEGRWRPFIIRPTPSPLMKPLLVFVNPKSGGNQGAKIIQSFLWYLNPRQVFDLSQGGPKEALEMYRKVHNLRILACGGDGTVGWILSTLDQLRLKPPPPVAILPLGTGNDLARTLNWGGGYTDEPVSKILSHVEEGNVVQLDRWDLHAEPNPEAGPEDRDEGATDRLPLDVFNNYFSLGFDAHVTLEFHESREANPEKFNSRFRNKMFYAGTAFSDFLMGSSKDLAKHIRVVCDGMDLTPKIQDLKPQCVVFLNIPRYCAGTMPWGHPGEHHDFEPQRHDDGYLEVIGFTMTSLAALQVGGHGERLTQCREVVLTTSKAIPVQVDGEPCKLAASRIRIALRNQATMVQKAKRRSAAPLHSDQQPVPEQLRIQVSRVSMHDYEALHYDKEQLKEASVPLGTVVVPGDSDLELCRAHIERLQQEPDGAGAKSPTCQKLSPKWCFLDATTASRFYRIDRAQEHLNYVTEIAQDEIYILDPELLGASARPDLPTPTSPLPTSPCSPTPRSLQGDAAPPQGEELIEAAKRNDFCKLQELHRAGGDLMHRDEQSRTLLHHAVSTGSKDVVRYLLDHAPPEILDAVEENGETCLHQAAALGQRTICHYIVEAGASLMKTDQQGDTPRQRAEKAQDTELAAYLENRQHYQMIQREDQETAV

The first assay relates to primary human T-cells. Put plainly: IL2 secretion measurements in CD3-stimulated T-cells. It is filed as cell-based. As to conditions: Homo sapiens, T-cell; isomer A; CD3 antibody-stimulated T-cells, IL2 in supernatant after 24 hours; read-out: Tcell IL2 CD3 EC50. The protocol: As readouts for T-cell activation, IL2 secretion after 24 hours and proliferation after 5 days was measured. Increases in IL2 secretion and proliferation upon compound treatment were assessed as the % of the maximum of reference compound A1. WO 2016/139181 discloses reference compound A1 as example 70. As a counter screen and to make sure that no unwanted TCR-independent activation was triggered, PBS conditions were run for all compounds.
Expanded primary human T-cells were thawed and cultured in RPMI 1640 (Gibco, #61870-010)+5% human serum (HS, Sigma, #H3667)+1 mM Sodium Pyruvate (Gibco, #11360-039)+50 μM 2-mercaptoethanol (Gibco, #31350-010) and lx Pen-Strep (Life Technologies, #15140122) medium at density of 2 Mio/ml for 3 hours in 5% CO2, 37° C. and 95% humidity. For coating of plates, […] or PBS++ with CD3 antibody (concentration depending on donor and determined by CD3 titrations) was added 100 μl/well to Poly-D Lysine coated 96-well plates. Plates were sealed and incubated at room temperature for 3 hours on a table-top rocking platform. After incubation, plates were washed once with PBS−− and filled with 40 μl/well culture medium only. Compounds were then added (see next section) to medium only plates. After 3 hours of culturing the T-cells, cells were filtered through a cell strainer (Miltenyi Biotech, #130-041-407), counted again and concentration was adjusted to 1.25 Mio/ml.
Cells were then seeded 80 μl/well to the 40 μl/well including dispensed compounds according to plate layout. By adding cells, compounds were further diluted 1:3, and resulting in 100k cells/120 μl/well. After 24 hours 40 μl of supernatant was collected carefully from the top while not disturbing the cells and transferred into a round bottom 96 well plate. Collected and frozen supernatant was used for detection of IL2 using the IL-2 Human ProQuantum Immunoassay Kit (Invitrogen) or using the Human IL-2 ELISA Kit (Thermo Fisher).
Compounds were added in a 5 or 6 pt dose response with the Tecan D300e Digital Dispenser, all conditions 3 times more concentrated than the end-concentration, since cells are added afterwards (80 μl cells to 40 μl prepared medium with treatment). The DR was starting at 20 μM or 10 μM final top concentration and a dilution factor of 3.333. The positive control was the reference compound A1 that was added in a dose response as well, additionally to 3 wells of only 20 μM representing the positive stimulator control. All wells were normalized with DMSO to a final concentration of 0.6% (0.2% end-concentration).
The immunoassay is done following the manufacturer's manual (Invitrogen, #A35603).
Additional information: For the immunoassay, MicroAmp™ EnduraPlate™ Optical 384-Well plates are used. Frozen supernatant is thawed and centrifuged for 5 minutes at 1000×g, both steps at 4° C. After centrifugation, required sample amount is taken from the top, and in a separate LightCycler V-bottom plate (working plate) diluted with assay dilution buffer, dilution factor depending on the PBS or CD3 condition but at least 1:3. IL-2 standard and blanks are prepared in the same V-bottom plate, standard with a range of […] (extended version). After preparation, […] of sample dilutions or standard/blanks are transferred to the optical 384-well plate (assay plate) and the 10 μl reaction protocol is being followed. For measurement, the QuantStudio 12K Flex system is used. Raw data is extracted and IL-2 concentrations are calculated with the Thermo Fisher online app (apps.thermofisher.com/apps/proquantum).
ELISA is done following the manufacturer's manual (Thermo Fisher Scientific, #88-7025-88).
Additional information: For the ELISA Nunc MaxiSorp 96 well plates are used. Frozen supernatant is thawed and centrifuged for 5 minutes at 1000×g, both steps at 4° C. After that, required sample amount is taken from the top, and in a separate V-bottom plate diluted with ELISA diluent, dilution factor depending on the PBS or CD3 condition. […]
As a reminder, the EC50 is the midpoint of the concentration-response curve. Turning to `CC(C)(C#N)c1nnc(-c2cc3c(cc2F)C(F)(F)C[C@@H](N)C(=O)N3Cc2ccc(-c3ccc(C(F)(F)F)cn3)cc2)o1` (single isomer, unassigned) [Example 12], the EC50 was 0.367 µM.
Same read-out and setting: the value for `COc1ccc(-c2ccc(CN3C(=O)[C@H](N)CC(F)(F)c4cc(F)c(-c5nnc(C(C)(C)S(C)(=O)=O)o5)cc43)cc2)cc1` (single isomer, unassigned) [Example 10] was 0.379 µM.
`N[C@@H]1CC(F)(F)c2cc(F)c(-c3nnc(N4CCOC5(CC5)C4)o3)cc2N(Cc2ccc(-c3noc(C(F)(F)F)n3)cc2)C1=O` (single isomer, unassigned) [Example 17]: the EC50 was found to be 3.79 µM.
As for `CC(C)(C)c1nnc(-c2cc3c(cc2F)C(F)(F)C[C@@H](N)C(=O)N3Cc2ccc(OC3CCCC3)cc2)o1` (single isomer, unassigned) [Example 7], the EC50 came to 0.28 µM.
Regarding `COCCN1CC(c2nnc(-c3cc4c(cc3F)C(F)(F)C[C@@H](N)C(=O)N4Cc3ccc(-c4ccc(C(F)(F)F)cn4)cc3)o2)CC(F)(F)C1` (single isomer, unassigned) [Example 34], the EC50 is over 10 µM.

The assay is the same for the next values; noted with them: Homo sapiens, T-cell; isomer A; CD3 condition, 24 hours; 20 μM reference compound A1 = 100%, DMSO neutral control; read-out: Emax IL2 (% activation).
By Emax is commonly meant the greatest response seen or fitted, relative to the assay's reference. With `CC(C)(C#N)c1nnc(-c2cc3c(cc2F)C(F)(F)C[C@@H](N)C(=O)N3Cc2ccc(-c3ccc(C(F)(F)F)cn3)cc2)o1` (single isomer, unassigned) [Example 12], the Emax amounted to 67%.
`COc1ccc(-c2ccc(CN3C(=O)[C@H](N)CC(F)(F)c4cc(F)c(-c5nnc(C(C)(C)S(C)(=O)=O)o5)cc43)cc2)cc1` (single isomer, unassigned) [Example 10]: the Emax was 57%.
For `N[C@@H]1CC(F)(F)c2cc(F)c(-c3nnc(N4CCOC5(CC5)C4)o3)cc2N(Cc2ccc(-c3noc(C(F)(F)F)n3)cc2)C1=O` (single isomer, unassigned) [Example 17], the Emax amounted to 107%.
Turning to `CC(C)(C)c1nnc(-c2cc3c(cc2F)C(F)(F)C[C@@H](N)C(=O)N3Cc2ccc(OC3CCCC3)cc2)o1` (single isomer, unassigned) [Example 7], the Emax is 94%.
On to `COCCN1CC(c2nnc(-c3cc4c(cc3F)C(F)(F)C[C@@H](N)C(=O)N4Cc3ccc(-c4ccc(C(F)(F)F)cn4)cc3)o2)CC(F)(F)C1` (single isomer, unassigned) [Example 34], for which the Emax worked out at 31%.

The next assay concerns the target T1, hDGKzeta(1-928)-N-His (DGKZ) (Homo sapiens, UniProt Q13574).
T1 construct: hDGKzeta(1-928)-N-His; His (N)
Description: In vitro DGK inhibition assay (ADP-Glo, in house), DGK zeta. It is filed as biochemical. As to conditions: isomer A; 2 nM DGK ζ, 50 μM ATP, 125 μM DLG in liposomes, 1 hour reaction; read-out: DGKzeta ADP Glo assay IC50. The method, then: (§1) DGK α and ζ kinase use ATP to phosphorylate the substrate 1,2-dilauroyl-sn-glycerol (DLG, incorporated in the liposomes). ATP is converted to ADP as a result of this enzymatic reaction.
(§2) After the kinase reaction, an ATP-depletion reagent is added to terminate the kinase reaction and deplete any remaining ATP, leaving only ADP. Second, a detection reagent is added to simultaneously convert ADP to ATP and allow the newly synthesized ATP to be converted to light using a coupled luciferase/luciferin reaction.
(§3) Full length DGKA and Z were expressed in Sf21 insect cells by infecting the cells with the baculovirus stock at MOI of 2. Purification of both enzymes was performed as previously described by Takahashi et al., PeerJ, 2018 (Takahashi, D.; Sakane, F. Expression and purification of human diacylglycerolkinase alpha from baculovirus-infected insect cells for structural studies. PeerJ2018, 6, No. e5449).
(§4) A concentrated liposome solution was prepared in assay buffer without DTT and BSA: 2 mM of DLG in 21 mM of total liposome (2 mM DLG/8 mM PS/11 mM PC). The reaction mixtures contain the assay buffer with a final DLG concentration of 125 μM ATP concentrations of 25 μM (for DGKA assay) or 50 μM (for DGKZ assay). The reactions were started by addition of DGK α and ζ kinases at 4 nM and 2 nM final concentrations, respectively. After 1 hour reaction, the amount of ADP formed was detected with the ADP-Glo kinase assay (Promega) according to the manufacturer instructions. Compounds were added in 11I-points dose response, starting at 10 mM, 1:3 dilutions, with a final DMSO concentration of […]. The multidrop combi was used as a liquid handler and luminescence was read with 0.5 s by the envision reader (PE).
What is called IC50 is the concentration that inhibits the measured activity by half. In the case of `CC(C)(C#N)c1nnc(-c2cc3c(cc2F)C(F)(F)C[C@@H](N)C(=O)N3Cc2ccc(-c3ccc(C(F)(F)F)cn3)cc2)o1` (single isomer, unassigned) [Example 12], the IC50 is 2.9 µM.
Turning to `COc1ccc(-c2ccc(CN3C(=O)[C@H](N)CC(F)(F)c4cc(F)c(-c5nnc(C(C)(C)S(C)(=O)=O)o5)cc43)cc2)cc1` (single isomer, unassigned) [Example 10], the IC50 turned out to be 11.5 µM.
In the case of `N[C@@H]1CC(F)(F)c2cc(F)c(-c3nnc(N4CCOC5(CC5)C4)o3)cc2N(Cc2ccc(-c3noc(C(F)(F)F)n3)cc2)C1=O` (single isomer, unassigned) [Example 17], the IC50 amounted to 3.25 µM.
On the same count and under the same terms, the value for `CC(C)(C)c1nnc(-c2cc3c(cc2F)C(F)(F)C[C@@H](N)C(=O)N3Cc2ccc(OC3CCCC3)cc2)o1` (single isomer, unassigned) [Example 7] was 1.73 µM; that for `COCCN1CC(c2nnc(-c3cc4c(cc3F)C(F)(F)C[C@@H](N)C(=O)N4Cc3ccc(-c4ccc(C(F)(F)F)cn4)cc3)o2)CC(F)(F)C1` (single isomer, unassigned) [Example 34] was 11.1 µM.

The next assay has as its target T2, hDGKalpha(1-735)-N-His (DGKA) (Homo sapiens, UniProt P23743).
T2 construct: hDGKalpha(1-735)-N-His; His (N)
Description: In vitro DGK inhibition assay (ADP-Glo, in house), DGK alpha. It is filed as biochemical. As to conditions: isomer A; 4 nM DGK α, 25 μM ATP, 125 μM DLG in liposomes, 1 hour reaction; read-out: DGKalpha ADP Glo assay IC50. The method, then: as §1, §2, §3, §4
Background: In ADP-Glo the light output rises with the ADP produced.
For the molecule `CC(C)(C#N)c1nnc(-c2cc3c(cc2F)C(F)(F)C[C@@H](N)C(=O)N3Cc2ccc(-c3ccc(C(F)(F)F)cn3)cc2)o1` (single isomer, unassigned) [Example 12], the IC50 came to 24.6 µM.
Turning to `COc1ccc(-c2ccc(CN3C(=O)[C@H](N)CC(F)(F)c4cc(F)c(-c5nnc(C(C)(C)S(C)(=O)=O)o5)cc43)cc2)cc1` (single isomer, unassigned) [Example 10], the IC50 turned out to be 16.2 µM.
As to `N[C@@H]1CC(F)(F)c2cc(F)c(-c3nnc(N4CCOC5(CC5)C4)o3)cc2N(Cc2ccc(-c3noc(C(F)(F)F)n3)cc2)C1=O` (single isomer, unassigned) [Example 17], the IC50 was over 62.5 µM.
On the same count and under the same terms, the value for `CC(C)(C)c1nnc(-c2cc3c(cc2F)C(F)(F)C[C@@H](N)C(=O)N3Cc2ccc(OC3CCCC3)cc2)o1` (single isomer, unassigned) [Example 7] was 9.64 µM; that for `COCCN1CC(c2nnc(-c3cc4c(cc3F)C(F)(F)C[C@@H](N)C(=O)N4Cc3ccc(-c4ccc(C(F)(F)F)cn4)cc3)o2)CC(F)(F)C1` (single isomer, unassigned) [Example 34] was over 60 µM.
